One experiment addresses T1, human Kv1.5 (Homo sapiens, UniProt P22460).
T1 construct: expressed in transfected cells
In words: Kv1.5 Rb+ Efflux Assay. Format: cell-based. The note with it: inhibition of 86Rb+ efflux through Kv1.5; cells stably transfected with human Kv1.5; 10 point concentration response curves n=2; normalised to 2.5mM 4 amino-pyridine block. The method, then: The pore of a potassium channel is permeable to other monovalent cations such as Rb^+ and Tl^+. Analysis of cellular efflux of potassium channel permeable ions enables potassium channel activity to be monitored directly. Cells stably transfected with cDNA for human Kv1.5 (in pEF6::VA-His-TOPO) were grown in Dulbecco's Modified Eagle media (DMEM) alpha supplemented with 10% Fetal Calf Serum (FCS), 20 µl/ml penicillin (5000U/ml) streptomycin (5000µg/ml), 10µl/ml [100x] glutamine, and blasticidin (7.5µg/ml). Cells were dispensed into 96 well cellstar TC plates and allowed to grow until a confluent monolayer was visible. On the morning of the assay run, cold media was aspirated using the TECAN plate washer, and a 50µl media spike containing 2µCi/ml (37kBq/ml) ^86Rb^+ added to each well containing cells using the Shallow-Well Matrix Platemate. Plates were placed in a incubator at 37°C for a minimum of 3 hours. Unloaded ^86Rb^+ in the "hot" media was aspirated and each well washed 4x250µl with Earls Balanced Salt Solution (EBSS) which contained 5mM KCl, 140mM NaCl, 2mM CaCl2, 1mM MgSO4, 10mM HEPES, and 5mM glucose, pH 7.4, 290-300 mOsm. These cells were then pre-incubated with 50µl of EBSS +/- test compounds for 10 minutes at room temperature. After the 10 minute incubation, 50µl of modified EBSS which contained 145mM KCl, 2mM CaCl2, 1mM MgSO4, 10mM HEPES, 5mM glucose, pH 7.4, 290-300 mOsm, was added, and the cells were incubated for a further 10 minutes at room temperature. The high KCl EBSS was used to depolarise cells to a membrane potential that would activate Kv1.5 channels. After the final incubation 80µl/100µl of the reaction from each well was transferred to equivalent wells in a Packard "Optiplate" white 96 well plate and counted in a Packard TopCount liquid scintillation counter by Cerenkov emission. Percentage inhibition ^86Rb^+ efflux through Kv1.5 was calculated by normalisation to 2.5mM 4 amino-pyridine control block of Kv1.5. Alternatively cells were loaded with ^85Rb^+ and quantified by atomic absorption spectroscopy. IC50 determinations were derived from 10 point concentration response curves n=2 using the method described above. Data was fitted as variable slope sigmoidal fit using Graphpad Prism (V3.02) software.

The next experiment has as its target hKv1.5 (Homo sapiens, UniProt P22460). In words: Kv1.5 Autopatch Electrophysiology (whole cell patch-clamp). Format: cell-based. The note with it: compound at 1µM, room temperature (22-24°C), held at -80mV, step to 0mV for 1000ms, total charge measured. In outline:
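Whole-cell automated patch-clamp at 22-24°C, compounds tested at 1µM in external bather (KCl/K-gluconate, pH 7.4; KCl/EGTA pipette). Cells held at -80mV and stepped to 0mV for 1000ms every 5s; only cells with IK > 500 pA and Rseries ≤18 MΩ used. Read-out: total charge over the whole step.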

Chain of hKv1.5 (P22460 whole entry): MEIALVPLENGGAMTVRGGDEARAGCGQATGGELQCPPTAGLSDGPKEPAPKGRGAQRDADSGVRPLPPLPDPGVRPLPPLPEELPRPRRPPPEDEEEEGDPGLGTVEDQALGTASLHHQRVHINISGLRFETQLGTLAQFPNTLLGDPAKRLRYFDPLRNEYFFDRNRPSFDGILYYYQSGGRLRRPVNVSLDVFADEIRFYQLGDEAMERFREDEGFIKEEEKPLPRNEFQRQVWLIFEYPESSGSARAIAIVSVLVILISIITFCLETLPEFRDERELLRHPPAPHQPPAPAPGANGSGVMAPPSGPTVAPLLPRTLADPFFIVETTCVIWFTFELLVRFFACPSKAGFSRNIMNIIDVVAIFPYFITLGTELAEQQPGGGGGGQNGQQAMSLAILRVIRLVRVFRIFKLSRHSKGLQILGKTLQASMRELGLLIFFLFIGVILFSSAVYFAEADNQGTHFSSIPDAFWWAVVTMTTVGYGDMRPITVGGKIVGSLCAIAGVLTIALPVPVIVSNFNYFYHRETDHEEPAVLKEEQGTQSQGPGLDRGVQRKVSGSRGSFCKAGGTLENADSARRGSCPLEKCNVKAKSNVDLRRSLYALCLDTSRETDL
T1 sequence (P22460 whole entry): as above

On to `Clc1cccc(-c2csc3ncnc(NCc4ccccn4)c23)c1` [Example 321, [5-(3-Chlorophenyl)-thieno[2,3-d]pyrimidin-4-yl]-pyridin-2-ylmethyl-amine], for which the midpoint of inhibition at human Kv1.5, the IC50, lay at 1.52 µM. In addition, on hKv1.5, at 1 µM the inhibition was 95%.

For `c1ccc(-c2csc3ncnc(NCC4CCCCC4)c23)cc1` [Example 89, Cyclohexylmethyl-(5-phenyl-thieno[2,3-d]pyrimidin-4-yl)-amine], the IC50 at human Kv1.5 came out at 8.1 µM. The “% Inhibition at 1µM” value at hKv1.5 was 42.2%.

Consider `c1ccc(-c2csc3ncnc(SCc4ccco4)c23)cc1` [Example 117, 4-(Furan-2-ylmethylsulfanyl)-5-phenyl-thieno[2,3-d]pyrimidine], for which the IC50 against human Kv1.5 is 9.37 µM. Moreover, on hKv1.5, at 1 µM the inhibition was 43.6% and the “% Inhibition at 1µM” value was 57.2%.

Molecule `Nc1nc(NCc2ccccn2)c2c(-c3ccc(F)cc3)csc2n1` [Example 205, 5-(4-Fluorophenyl)-N^4-pyridin-2-ylmethyl-thieno[2,3-d]pyrimidine-2,4-diamine] returned an IC50 against human Kv1.5 of 11.9 µM. In addition, at 1 µM the inhibition at hKv1.5 was 97.5%.

`CC(C)(C)c1ccc(-c2csc3ncnc(NCc4ccco4)c23)cc1` [Example 145, [5-(4-tert-Butyl-phenyl)-thieno[2,3-d]pyrimidin-4-yl]-furan-2-ylmethyl-amine]: on human Kv1.5, the concentration for half-maximal inhibition (IC50) was determined as 3.05 µM. 1 µM produced 68% inhibition on hKv1.5.

As to `OCCc1nc(NCc2ccccn2)c2c(-c3ccccc3)csc2n1` [Example 250, 2-{5-Phenyl-4-[(pyridin-2-ylmethyl)amino]thieno[2,3-d]pyrimidin-2-yl}ethanol], 0.33 µM corresponded to half-maximal inhibition against human Kv1.5 (IC50). Besides, the inhibition at 1 µM against hKv1.5 turned out to be 98%.

In turn, `COc1ccc(CCNc2ncnc3scc(-c4ccc(C)cc4)c23)cc1OC` [Example 127, [2-(3,4-Dimethoxy-phenyl)-ethyl]-(5-p-tolyl-thieno[2,3-d]pyrimidin-4-yl)-amine] registered an IC50 against human Kv1.5 of 5.3 µM. On hKv1.5, this molecule had an inhibition at 1 µM of 20.7%.

Regarding `Brc1sc2ncnc(NCc3ccco3)c2c1-c1ccccc1` [Example 165, (6-Bromo-5-phenyl-thieno[2,3-d]pyrimidin-4-yl)-furan-2-ylmethyl-amine], on human Kv1.5, the 50% inhibitory concentration (IC50) amounted to 1.6 µM. Moreover, at hKv1.5, at 1 µM the inhibition was 91%.

For the molecule `c1coc(CNc2ncnc3scc(-c4cccs4)c23)c1` [Example 92, Furan-2-ylmethyl-(5-thiophen-2-yl-thieno[2,3-d]pyrimidin-4-yl)-amine], on human Kv1.5, the IC50 was found to be 1.91 µM. Further, on hKv1.5, at 1 µM the inhibition was 27.6%.

`c1ccc(-c2csc3nc(N4CCOCC4)nc(NCc4ccccn4)c23)cc1` [Example 197, (2-Morpholin-4-yl-5-phenyl-thieno[2,3-d]pyrimidin-4-yl)-pyridin-2-ylmethyl-amine]: on human Kv1.5, inhibition was half-maximal at 0.15 µM (IC50). Also, on hKv1.5, the inhibition at 1 µM was found to be 98%.

As to `FC(F)(F)c1nc(NCc2ccccn2)c2c(-c3ccccc3)csc2n1` [Example 151, (5-Phenyl-2-trifluoromethyl-thieno[2,3-d]pyrimidin-4-yl)-pyridin-2-ylmethyl-amine], at human Kv1.5, the midpoint of inhibition, the IC50, lay at 1.68 µM. Also, the inhibition at 1 µM against hKv1.5 was found to be 95%.

`CNc1nc(NCc2ccccn2)c2c(-c3ccccc3)csc2n1` [Example 196, N^2-methyl-5-phenyl-N^4-(pyridin-2-ylmethyl)thieno[2,3-d]pyrimidine-2,4-diamine] gave an IC50 against human Kv1.5 of 0.04 µM. At hKv1.5, this molecule gave an inhibition at 1 µM of 97%.

Turning to `CC(C)(C)c1ccc(-c2csc3ncnc(NCc4ccccn4)c23)cc1` [Example 144, [5-(4-tert-Butyl-phenyl)-thieno[2,3-d]pyrimidin-4-yl]-pyridin-2-ylmethyl-amine], the concentration for half-maximal inhibition (IC50) on human Kv1.5 stood at 1.32 µM. Also, at 1 µM the inhibition at hKv1.5 was 81%.

For `COCCNc1nc(NCc2ccccn2)c2c(-c3ccc(F)cc3)csc2n1` [Example 209, 5-(4-Fluorophenyl)-N^2-(2-methoxy-ethyl)-N^4-pyridin-2-ylmethyl-thieno[2,3-d]pyrimidine-2,4-diamine], the IC50 against human Kv1.5 came to 1.83 µM. For the same molecule, at hKv1.5, the inhibition at 1 µM turned out to be 96%.

The molecule `c1csc(-c2csc3ncnc(NCC4CC4)c23)c1` [Example 95, Cyclopropylmethyl-(5-thiophen-2-yl-thieno[2,3-d]pyrimidin-4-yl)-amine] came in with an IC50 at human Kv1.5 of 4.51 µM. At hKv1.5, this molecule yielded an inhibition at 1 µM of 32.6%.

`CC(C)c1nc(NCc2ccccn2)c2c(-c3ccccc3)csc2n1` [Example 148, (2-Isopropyl-5-phenyl-thieno[2,3-d]pyrimidin-4-yl)-pyridin-2-ylmethyl-amine]: on human Kv1.5, it took 1.51 µM to reach half-maximal inhibition (IC50). Also, on hKv1.5, 1 µM produced 88% inhibition.

`Clc1ccc(-c2csc3ncnc(NCCc4ccccc4)c23)cc1` [Example 136, [5-(4-Chloro-phenyl)-thieno[2,3-d]pyrimidin-4-yl]-phenethyl-amine]: the midpoint of inhibition against human Kv1.5, the IC50, lay at 16.8 µM. At hKv1.5, this molecule yielded an inhibition at 1 µM of 27.2%.

For `COc1cccc(-c2csc3ncnc(NCc4ccccn4)c23)c1` [Example 322, [5-(3-Methoxyphenyl)-thieno[2,3-d]pyrimidin-4-yl]-pyridin-2-ylmethyl-amine], on human Kv1.5, half-maximal inhibition (IC50) required 0.26 µM. Moreover, the inhibition at 1 µM on hKv1.5 was determined as 94%.

Regarding `Cc1ccc(-c2csc3ncnc(NCc4ccco4)c23)nc1` [Example 122, Furan-2-ylmethyl-[5-(5-methyl-pyridin-2-yl)-thieno[2,3-d]pyrimidin-4-yl]-amine], at human Kv1.5, the IC50 stood at 3.53 µM. For the same molecule, at hKv1.5, the inhibition at 1 µM stood at 36.3%.

`Fc1ccc(-c2csc3nc(N4CCOCC4)nc(NCc4ccccn4)c23)cc1` [Example 207, [5-(4-Fluorophenyl)-2-morpholin-4-yl-thieno[2,3-d]pyrimidin-4-yl]-pyridin-2-ylmethyl-amine]: the concentration for half-maximal inhibition (IC50) against human Kv1.5 was 42.5 µM. Besides, the inhibition at 1 µM on hKv1.5 came to 97.2%.

`c1ccc(CNc2ncnc3scc(-c4ccc5c(c4)OCCO5)c23)nc1` [Example 320, [5-(2,3-Dihydro-benzo[1,4]dioxin-6-yl)-thieno[2,3-d]pyrimidin-4-yl]-pyridin-2-ylmethyl-amine] came in with an IC50 at human Kv1.5 of 0.37 µM. At hKv1.5, this molecule returned an inhibition at 1 µM of 97%.

`c1ccc(-c2csc3ncnc(OCc4ccccn4)c23)cc1` [Example 106, 5-Phenyl-4-(pyridin-2-ylmethoxy)-thieno[2,3-d]pyrimidine] had an IC50 against human Kv1.5 of 0.33 µM. Moreover, the inhibition at 1 µM against hKv1.5 was determined as 21.9%.

Molecule `Clc1ccc(-c2csc3ncnc(NCc4ccccn4)c23)cc1` [Example 325, [5-(4-Chlorophenyl)-thieno[2,3-d]pyrimidin-4-yl]-pyridin-2-ylmethyl-amine] yielded an IC50 on human Kv1.5 of 2.54 µM. Besides, testing at 1 µM against hKv1.5 gave an inhibition of 90.8%.

For `Cc1ccc(CNc2ncnc3scc(-c4ccccc4)c23)o1` [Example 108, (5-Methyl-furan-2-ylmethyl)-(5-phenyl-thieno[2,3-d]pyrimidin-4-yl)-amine], half-maximal inhibition at human Kv1.5 (IC50) required 0.41 µM. The same molecule gave an inhibition at 1 µM on hKv1.5 of 37.2%.

On to `c1ccc(-c2csc3ncnc(NCc4ccoc4)c23)cc1` [Example 107, Furan-3-ylmethyl-(5-phenyl-thieno[2,3-d]pyrimidin-4-yl)-amine], for which the IC50 on human Kv1.5 is 1.05 µM. This molecule also yielded an inhibition at 1 µM against hKv1.5 of 25.3%.

As for `CCOC(=O)Cc1nc(NCc2ccccn2)c2c(-c3ccccc3)csc2n1` [Example 237, {5-Phenyl-4-[(pyridin-2-ylmethyl)amino]thieno[2,3-d]pyrimidin-2-yl} acetic acid ethyl ester], on human Kv1.5, inhibition was half-maximal at 0.54 µM (IC50). This molecule also gave an inhibition at 1 µM against hKv1.5 of 95%.

For the origin of these results see patent EP1641803B1, “THIENOPYRIMIDINE DERIVATIVES AS POTASSIUM CHANNEL INHIBITORS” (Xention Limited, priority 2003, dated 2004).
